Experiment: molar heat capacity at constant volume
Details: Fluid (supercritical or subcritical phases), Vacuum adiabatic calorimetry

CCC(C)O (stereo not given) [butan-2-ol]
Details | molar heat capacity at constant volume [J/K/mol]
535.75 K, Mass density=276.45 kg/m3 | 527.97
535.77 K, Mass density=276.45 kg/m3 | 533.08
535.79 K, Mass density=276.45 kg/m3 | 548.5
535.81 K, Mass density=276.45 kg/m3 | 529.67
535.83 K, Mass density=276.45 kg/m3 | 536.49
535.85 K, Mass density=276.45 kg/m3 | 560.43
535.86 K, Mass density=276.45 kg/m3 | 562.14
535.88 K, Mass density=276.45 kg/m3 | 565.55
535.9 K, Mass density=276.45 kg/m3 | 627.07
535.92 K, Mass density=198.25 kg/m3 | 287.44
535.92 K, Mass density=245.67 kg/m3 | 437.17
535.92 K, Mass density=276.45 kg/m3 | 603.13
535.92 K, Mass density=279.19 kg/m3 | 513.14
535.92 K, Mass density=284.93 kg/m3 | 498.99
535.92 K, Mass density=286.65 kg/m3 | 532.71
535.92 K, Mass density=301.19 kg/m3 | 383.21
535.92 K, Mass density=347.06 kg/m3 | 252.01
535.94 K, Mass density=284.93 kg/m3 | 419.68
535.94 K, Mass density=286.65 kg/m3 | 578.37
535.95 K, Mass density=284.93 kg/m3 | 421.31
535.95 K, Mass density=286.65 kg/m3 | 524.41
535.97 K, Mass density=284.93 kg/m3 | 349.85
535.97 K, Mass density=286.65 kg/m3 | 524.41
535.99 K, Mass density=284.93 kg/m3 | 316.57
536.01 K, Mass density=284.93 kg/m3 | 314.87
536.01 K, Mass density=286.65 kg/m3 | 402.85
536.02 K, Mass density=284.93 kg/m3 | 309.9
536.02 K, Mass density=286.65 kg/m3 | 345.48
536.04 K, Mass density=284.93 kg/m3 | 311.53
536.04 K, Mass density=286.65 kg/m3 | 354.45
536.06 K, Mass density=284.93 kg/m3 | 311.53
536.06 K, Mass density=286.65 kg/m3 | 328.36
536.07 K, Mass density=284.93 kg/m3 | 306.57
536.07 K, Mass density=286.65 kg/m3 | 328.58
536.1 K, Mass density=198.25 kg/m3 | 281.66
536.1 K, Mass density=245.67 kg/m3 | 331.55
536.1 K, Mass density=279.19 kg/m3 | 476.23
536.1 K, Mass density=284.93 kg/m3 | 291.59
536.1 K, Mass density=286.65 kg/m3 | 323.99
536.1 K, Mass density=301.19 kg/m3 | 296.49
536.1 K, Mass density=347.06 kg/m3 | 251.27
536.29 K, Mass density=198.25 kg/m3 | 285.44
536.29 K, Mass density=245.67 kg/m3 | 329.17
536.29 K, Mass density=276.45 kg/m3 | 321.32
536.29 K, Mass density=279.19 kg/m3 | 304.71
536.29 K, Mass density=284.93 kg/m3 | 286.04
536.29 K, Mass density=286.65 kg/m3 | 321.09
536.29 K, Mass density=301.19 kg/m3 | 280.18
536.29 K, Mass density=347.06 kg/m3 | 249.79
536.47 K, Mass density=245.67 kg/m3 | 323.47
536.47 K, Mass density=276.45 kg/m3 | 313.68
536.47 K, Mass density=279.19 kg/m3 | 298.27
536.47 K, Mass density=284.93 kg/m3 | 280.77
536.47 K, Mass density=286.65 kg/m3 | 317.39
536.47 K, Mass density=301.19 kg/m3 | 281.66
536.47 K, Mass density=347.06 kg/m3 | 252.75
536.65 K, Mass density=245.67 kg/m3 | 321.24
536.65 K, Mass density=276.45 kg/m3 | 308.64
536.65 K, Mass density=279.19 kg/m3 | 293.23
536.65 K, Mass density=284.93 kg/m3 | 276.92
536.65 K, Mass density=286.65 kg/m3 | 311.53
536.65 K, Mass density=301.19 kg/m3 | 277.96
536.65 K, Mass density=347.06 kg/m3 | 246.82
536.83 K, Mass density=245.67 kg/m3 | 318.35
536.83 K, Mass density=276.45 kg/m3 | 300.12
536.83 K, Mass density=279.19 kg/m3 | 287.74
536.83 K, Mass density=284.93 kg/m3 | 274.25
536.84 K, Mass density=347.06 kg/m3 | 250.53
537.02 K, Mass density=279.19 kg/m3 | 289.37
537.02 K, Mass density=284.93 kg/m3 | 272.03
537.02 K, Mass density=301.19 kg/m3 | 263.13
537.02 K, Mass density=347.06 kg/m3 | 248.31
537.2 K, Mass density=245.67 kg/m3 | 296.34
537.2 K, Mass density=276.45 kg/m3 | 295.37
537.2 K, Mass density=279.19 kg/m3 | 287.81
537.2 K, Mass density=284.93 kg/m3 | 271.51
537.2 K, Mass density=286.65 kg/m3 | 304.94
537.2 K, Mass density=301.19 kg/m3 | 266.84
537.38 K, Mass density=245.67 kg/m3 | 296.56
537.38 K, Mass density=276.45 kg/m3 | 285.37
537.38 K, Mass density=279.19 kg/m3 | 282.48
537.38 K, Mass density=284.93 kg/m3 | 270.32
537.38 K, Mass density=286.65 kg/m3 | 304.42
537.38 K, Mass density=301.19 kg/m3 | 263.13
537.57 K, Mass density=245.67 kg/m3 | 297.52
537.57 K, Mass density=276.45 kg/m3 | 284.11
537.57 K, Mass density=279.19 kg/m3 | 284.26
537.57 K, Mass density=284.93 kg/m3 | 268.17
537.57 K, Mass density=286.65 kg/m3 | 301.23
537.57 K, Mass density=301.19 kg/m3 | 260.17
537.75 K, Mass density=276.45 kg/m3 | 282.92
537.75 K, Mass density=284.93 kg/m3 | 267.36
537.75 K, Mass density=286.65 kg/m3 | 302.27
537.75 K, Mass density=301.19 kg/m3 | 260.17
537.93 K, Mass density=117 kg/m3 | 227.92
537.93 K, Mass density=279.19 kg/m3 | 277.21
537.93 K, Mass density=286.65 kg/m3 | 301.23
537.93 K, Mass density=301.19 kg/m3 | 259.43
538.11 K, Mass density=117 kg/m3 | 182.93
538.11 K, Mass density=279.19 kg/m3 | 274.92
538.11 K, Mass density=301.19 kg/m3 | 253.5
538.3 K, Mass density=279.19 kg/m3 | 277.66
538.3 K, Mass density=286.65 kg/m3 | 295.15
538.3 K, Mass density=301.19 kg/m3 | 255.72
538.48 K, Mass density=117 kg/m3 | 269.06

Reference: the NIST ThermoML archive (doi:10.1016/j.tca.2013.08.031)
